The structures appear in SMILES notation.

This experiment deals with Helios (Homo sapiens, UniProt Q96SW2+Q9UKS7). Put plainly: Helios Human T Regulatory Cells Degradation Assay. It counts as cell-based. Set-up: fluorescently labelled antibodies against Helios in 1× Permeabilization buffer; endogenous in cells; host or cells: cryopreserved human T regulatory cells. The settings on record: cryopreserved human T regulatory cells, incubated 20 hours, Helios-APC antibody staining, flow cytometry; read-out: hTreg Helios DC50. The procedure: Cryopreserved human T regulatory cells were thawed in RPMI+10% FBS+20 ng/mL IL-2. After being spun at 1200 rpm for 5 mins, the cells were resuspended in RPMI+10% FBS+20 ng/mL and rested at 37° C. with 5% CO2 for 3 hours. […] Cell cultures were incubated for 20 hours at 37° C. and 5% CO2. In order to facilitate analysis, cell cultures were spun down at 1200 rpm for 5 minutes and the supernatant was discarded using an EL406 plate washer. After washing three times with 70 μL PBS, cell pellets were resuspended in 50 μL of near IR viability staining solution (Life Technologies, Cat #L34975) and incubated for 30 minutes on ice protected from light. Cells were washed three times with 70 μL PBS+0.5% BSA using an EL406 plate washer. […] Subsequently, 30 μL of 1× Permeabilization buffer was added prior to centrifuging the cells and discarding the supernatant. Stained cells were resuspended in 30 μL of flow cytometry staining buffer (PBS+0.5% BSA) and analyzed using an Intellicyt Ique Plus flow cytometer.
Chain of Helios (Q9UKS7 whole entry): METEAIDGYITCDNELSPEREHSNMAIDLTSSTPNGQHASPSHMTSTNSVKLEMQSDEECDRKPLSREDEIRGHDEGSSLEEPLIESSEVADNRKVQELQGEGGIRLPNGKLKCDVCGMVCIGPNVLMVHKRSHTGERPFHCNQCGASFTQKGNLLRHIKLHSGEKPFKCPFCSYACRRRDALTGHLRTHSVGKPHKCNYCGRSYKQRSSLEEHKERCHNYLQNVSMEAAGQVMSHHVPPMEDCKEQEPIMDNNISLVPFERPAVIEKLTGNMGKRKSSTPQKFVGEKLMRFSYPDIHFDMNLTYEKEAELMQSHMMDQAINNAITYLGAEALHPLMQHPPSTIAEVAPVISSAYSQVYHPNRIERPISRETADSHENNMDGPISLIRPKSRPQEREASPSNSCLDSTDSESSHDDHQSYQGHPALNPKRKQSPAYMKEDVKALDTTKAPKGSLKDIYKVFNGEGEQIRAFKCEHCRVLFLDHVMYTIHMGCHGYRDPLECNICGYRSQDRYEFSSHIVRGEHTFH
Chain of Helios (Q96SW2 whole entry): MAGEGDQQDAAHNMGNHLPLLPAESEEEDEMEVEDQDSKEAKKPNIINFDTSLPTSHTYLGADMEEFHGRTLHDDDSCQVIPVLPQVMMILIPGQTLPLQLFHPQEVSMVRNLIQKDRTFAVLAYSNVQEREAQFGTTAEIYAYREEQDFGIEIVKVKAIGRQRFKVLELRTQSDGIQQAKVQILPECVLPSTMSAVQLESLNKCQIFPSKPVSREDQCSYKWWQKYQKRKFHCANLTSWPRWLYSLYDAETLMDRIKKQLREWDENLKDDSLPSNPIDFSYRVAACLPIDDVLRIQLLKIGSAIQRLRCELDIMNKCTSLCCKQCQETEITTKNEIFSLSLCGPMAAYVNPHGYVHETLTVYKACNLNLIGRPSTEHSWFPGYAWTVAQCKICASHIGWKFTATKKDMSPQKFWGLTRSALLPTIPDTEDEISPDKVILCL
Chain of Helios (Q16531 whole entry partner): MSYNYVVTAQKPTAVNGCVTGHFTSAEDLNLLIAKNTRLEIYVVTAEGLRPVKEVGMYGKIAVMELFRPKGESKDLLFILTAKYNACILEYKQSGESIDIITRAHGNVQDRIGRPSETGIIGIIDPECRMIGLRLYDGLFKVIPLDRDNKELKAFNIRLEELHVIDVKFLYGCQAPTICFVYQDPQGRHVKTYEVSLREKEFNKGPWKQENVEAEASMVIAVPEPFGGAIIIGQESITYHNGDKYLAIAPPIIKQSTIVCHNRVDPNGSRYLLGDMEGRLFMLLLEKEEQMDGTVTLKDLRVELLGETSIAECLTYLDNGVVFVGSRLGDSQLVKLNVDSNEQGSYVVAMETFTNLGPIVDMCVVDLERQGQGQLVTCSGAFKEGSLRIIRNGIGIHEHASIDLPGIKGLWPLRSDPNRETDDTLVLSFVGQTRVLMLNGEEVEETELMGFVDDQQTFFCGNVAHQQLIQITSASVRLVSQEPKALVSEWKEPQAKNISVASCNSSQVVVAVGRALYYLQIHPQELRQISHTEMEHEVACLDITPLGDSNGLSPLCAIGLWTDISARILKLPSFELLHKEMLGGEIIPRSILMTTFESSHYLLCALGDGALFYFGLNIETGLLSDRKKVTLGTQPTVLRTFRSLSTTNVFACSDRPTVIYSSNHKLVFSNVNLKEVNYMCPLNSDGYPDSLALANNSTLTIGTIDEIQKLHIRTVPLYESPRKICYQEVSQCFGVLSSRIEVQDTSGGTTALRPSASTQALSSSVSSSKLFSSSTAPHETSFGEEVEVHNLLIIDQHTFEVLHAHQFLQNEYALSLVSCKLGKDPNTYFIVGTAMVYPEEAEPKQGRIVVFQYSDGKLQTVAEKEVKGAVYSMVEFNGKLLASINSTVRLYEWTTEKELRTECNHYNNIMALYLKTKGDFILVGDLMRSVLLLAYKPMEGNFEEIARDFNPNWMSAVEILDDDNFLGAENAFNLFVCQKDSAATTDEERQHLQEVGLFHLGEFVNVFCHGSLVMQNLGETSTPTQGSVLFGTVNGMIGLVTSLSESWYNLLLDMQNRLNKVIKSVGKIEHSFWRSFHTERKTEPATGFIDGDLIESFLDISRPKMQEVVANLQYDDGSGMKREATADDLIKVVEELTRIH
For orientation: Flow cytometry measures light scatter and fluorescence of single cells or particles in a stream.
The term DC50 denotes the concentration at which degradation of the target reaches its halfway point. With `CC(C)(O)[C@H]1CCN(Cc2ccnc(-c3ccc4c(c3)CN(C3CCC(=O)NC3=O)C4=O)c2F)C1` (stereo partly drawn) [Example 110, 3-(5-(3-fluoro-4-(((S)-3-(2-hydroxypropan-2-yl)pyrrolidin-1-yl)methyl)pyridin-2-yl)-1-oxoisoindolin-2-yl)piperidine-2,6-dione], the half-maximal degradation concentration (DC50) stood at 0.0098 µM.
As for `CC(C)(O)[C@@H]1CCN(Cc2ccnc(-c3ccc4c(c3)CN(C3CCC(=O)NC3=O)C4=O)c2F)C1` (stereo partly drawn) [Example 111, 3-(5-(3-fluoro-4-(((R)-3-(2-hydroxypropan-2-yl)pyrrolidin-1-yl)methyl)pyridin-2-yl)-1-oxoisoindolin-2-yl) piperidine-2,6-dione], the figure is 0.0104 µM.
As for `CC(O)C1CCN(Cc2ccnc(-c3ccc4c(c3)CN(C3CCC(=O)NC3=O)C4=O)c2F)C1` (centres unmarked) [Example 112, 3-(5-(3-fluoro-4-((3-(1-hydroxyethyl)pyrrolidin-1-yl)methyl)pyridin-2-yl)-1-oxoisoindolin-2-yl)piperidine-2,6-dione], the figure is 0.0095 µM.
Then `CC(O)C1CCN(Cc2ccnc(-c3ccc4c(c3)CN(C3CCC(=O)NC3=O)C4=O)c2F)CC1` (centres unmarked) [Example 113, 3-(5-(3-fluoro-4-((4-(1-hydroxyethyl)piperidin-1-yl)methyl)pyridin-2-yl)-1-oxoisoindolin-2-yl) piperidine-2,6-dione], with 0.0139 µM; and `O=C1CCC(N2Cc3cc(-c4nccc(CN5CC[C@H](O)C5)c4F)ccc3C2=O)C(=O)N1` (stereo partly drawn) [Example 114, 3-(5-(3-fluoro-4-(((S)-3-hydroxypyrrolidin-1-yl)methyl)pyridin-2-yl)-1-oxoisoindolin-2-yl)piperidine-2,6-dione], with 0.0235 µM.
Consider `C[C@@H]1c2c(ccc(-c3cc(CN4CC[C@@H](CO)C4)ccn3)c2F)C(=O)N1[C@H]1CCC(=O)NC1=O` [Example 133, (S)-3-((R)-4-fluoro-5-(4-(((R)-3-(hydroxymethyl)pyrrolidin-1-yl)methyl)pyridin-2-yl)-3-methyl-1-oxoisoindolin-2-yl)piperidine-2,6-dione], for which the DC50 is 0.0231 µM.
For `C[C@@H]1c2c(ccc(-c3cc(CN4CCC(O)(c5ccccc5)C4)ccn3)c2F)C(=O)N1[C@H]1CCC(=O)NC1=O` (stereo partly drawn) [Example 139, (3S)-3-((3R)-4-fluoro-5-(4-((3-hydroxy-3-phenylpyrrolidin-1-yl)methyl)pyridin-2-yl)-3-methyl-1-oxoisoindolin-2-yl)piperidine-2,6-dione], the 50% degradation concentration (DC50) was 0.367 µM.
As for `C[C@@H]1c2c(ccc(-c3cc(CN4CCC(C)(O)C4)ccn3)c2F)C(=O)N1[C@H]1CCC(=O)NC1=O` (stereo partly drawn) [Example 140, (3S)-3-((3R)-4-fluoro-5-(4-((3-hydroxy-3-methylpyrrolidin-1-yl)methyl)pyridin-2-yl)-3-methyl-1-oxoisoindolin-2-yl)piperidine-2,6-dione], the figure is 0.0791 µM; as for `C[C@@H]1c2c(ccc(-c3cc(CN4CC[C@@H](Oc5ccccc5)C4)ccn3)c2F)C(=O)N1[C@H]1CCC(=O)NC1=O` [Example 141, (S)-3-((R)-4-fluoro-3-methyl-1-oxo-5-(4-(((R)-3-phenoxypyrrolidin-1-yl)methyl)pyridin-2-yl)isoindolin-2-yl)piperidine-2,6-dione], ≥ 10 µM; as for `C[C@@H]1c2c(ccc(-c3cc(CN4CC[C@H](F)C4)ccn3)c2F)C(=O)N1[C@H]1CCC(=O)NC1=O` [Example 142], 0.706 µM.
Take `O=C1CC[C@H](N2Cc3cc(-c4cc(CN5CC6(CC(O)C6)C5)ccn4)ccc3C2=O)C(=O)N1` [Example 145, (S)-3-(5-(4-((6-hydroxy-2-azaspiro[3.3]heptan-2-yl)methyl)pyridin-2-yl)-1-oxoisoindolin-2-yl)piperidine-2,6-dione]: the half-maximal degradation concentration (DC50) was 0.0007 µM.
As for `O=C1CC[C@H](N2Cc3cc(-c4cc(CN5CC6CC(O)CC6C5)ccn4)ccc3C2=O)C(=O)N1` (stereo partly drawn) [Example 146, (3S)-3-(5-(4-((5-hydroxyhexahydrocyclopenta[c]pyrrol-2(1H)-yl)methyl)pyridin-2-yl)-1-oxoisoindolin-2-yl)piperidine-2,6-dione], the figure is 0.003 µM.
Then `CC1=CC2CN(Cc3ccnc(-c4ccc5c(c4)CN([C@H]4CCC(=O)NC4=O)C5=O)c3)CC2C1` (stereo partly drawn) [Example 148, (3S)-3-(5-(4-((5-methyl-3,3a,4,6a-tetrahydrocyclopenta[c]pyrrol-2(1H)-yl)methyl)pyridin-2-yl)-1-oxoisoindolin-2-yl)piperidine-2,6-dione], with 0.0037 µM; and `O=C1CC[C@H](N2Cc3cc(-c4nccc(CN5C[C@H]6CCC(O)C[C@H]6C5)c4F)ccc3C2=O)C(=O)N1` (stereo partly drawn) [Example 149, (3S)-3-(5-(3-fluoro-4-(((3aR,7aS)-5-hydroxyoctahydro-2H-isoindol-2-yl)methyl)pyridin-2-yl)-1-oxoisoindolin-2-yl)piperidine-2,6-dione], with 0.0067 µM; and `O=C1CC[C@H](N2Cc3cc(-c4nccc(CN5CCC6(CCNC6=O)CC5)c4F)ccc3C2=O)C(=O)N1` [Example 150, (S)-3-(5-(3-fluoro-4-((1-oxo-2,8-diazaspiro[4.5]decan-8-yl)methyl)pyridin-2-yl)-1-oxoisoindolin-2-yl)piperidine-2,6-dione], with ≥ 10 µM.
Then `O=C1CC[C@H](N2Cc3cc(-c4nccc(CN5C[C@H]6COC[C@H]6C5)c4F)ccc3C2=O)C(=O)N1` [Example 151, (S)-3-(5-(3-fluoro-4-(((3aR,6aS)-tetrahydro-1H-furo[3,4-c]pyrrol-5(3H)-yl)methyl)pyridin-2-yl)-1-oxoisoindolin-2-yl)piperidine-2,6-dione], with 0.167 µM.
Regarding `O=C1CC[C@H](N2Cc3cc(-c4cc(CN5C[C@H]6COC[C@H]6C5)ccn4)ccc3C2=O)C(=O)N1` [Example 152, (S)-3-(1-oxo-5-(4-(((3aR,6aS)-tetrahydro-1H-furo[3,4-c]pyrrol-5(3H)-yl)methyl)pyridin-2-yl)isoindolin-2-yl)piperidine-2,6-dione], the DC50 was found to be 0.0188 µM.
Then `O=C1CC[C@H](N2Cc3cc(-c4nccc(CN5CC6(CC(O)C6)C5)c4F)ccc3C2=O)C(=O)N1` [Example 153, (S)-3-(5-(3-fluoro-4-((6-hydroxy-2-azaspiro[3.3]heptan-2-yl)methyl)pyridin-2-yl)-1-oxoisoindolin-2-yl)piperidine-2,6-dione], with 0.0153 µM; and `CC(C)(C)OC(=O)N1C[C@@H]2CN(Cc3ccnc(-c4ccc5c(c4)CN([C@H]4CCC(=O)NC4=O)C5=O)c3F)C[C@H]2C1` [Example 154, tert-butyl (3aS,6aS)-5-((2-(2-((S)-2,6-dioxopiperidin-3-yl)-1-oxoisoindolin-5-yl)-3-fluoropyridin-4-yl)methyl)hexahydropyrrolo[3,4-c]pyrrole-2(1H)-carboxylate], with 0.284 µM.
Then `O=C1CC[C@H](N2Cc3cc(-c4nccc(CN5CC6CCCC6C5)c4F)ccc3C2=O)C(=O)N1` (stereo partly drawn) [Example 155, (3S)-3-(5-(3-fluoro-4-((hexahydrocyclopenta[c]pyrrol-2(1H)-yl)methyl)pyridin-2-yl)-1-oxoisoindolin-2-yl)piperidine-2,6-dione], with 0.0109 µM.
Then `CC(C)(C)OC(=O)N1C[C@H]2CN(Cc3ccnc(-c4ccc5c(c4)CN([C@H]4CCC(=O)NC4=O)C5=O)c3F)C[C@H]2C1` [Example 156, tert-butyl (3aR,6aS)-5-((2-(2-((S)-2,6-dioxopiperidin-3-yl)-1-oxoisoindolin-5-yl)-3-fluoropyridin-4-yl)methyl)hexahydropyrrolo[3,4-c]pyrrole-2(1H)-carboxylate], with ≥ 10 µM.
Consider `O=C1CCC(N2Cc3cc(-c4cc(CN5CC6(CCCCC6)C5)ccn4)ccc3C2=O)C(=O)N1` (centres unmarked) [Example 157, 3-(5-(4-((2-azaspiro[3.5]nonan-2-yl)methyl)pyridin-2-yl)-1-oxoisoindolin-2-yl) piperidine-2,6-dione], for which the half-maximal degradation concentration (DC50) was found to be 0.0025 µM.
With `O=C1CC[C@H](N2Cc3cc(-c4cc(CN5CC6(CCOCC6)C5)ccn4)ccc3C2=O)C(=O)N1` [Example 158, (S)-3-(5-(4-((7-oxa-2-azaspiro[3.5]nonan-2-yl)methyl)pyridin-2-yl)-1-oxoisoindolin-2-yl)piperidine-2,6-dione], the DC50 turned out to be 0.0032 µM.
Then `O=C1CCC(N2Cc3cc(-c4cc(CN5CC(CNC(=O)c6ccccc6)C5)ccn4)ccc3C2=O)C(=O)N1` (centres unmarked) [Example 159, N-((1-((2-(2-(2,6-dioxopiperidin-3-yl)-1-oxoisoindolin-5-yl)pyridin-4-yl)methyl)azetidin-3-yl)methyl)benzamide], with 0.0146 µM; and `CN(C(=O)c1ccccc1)C1CN(Cc2ccnc(-c3ccc4c(c3)CN([C@H]3CCC(=O)NC3=O)C4=O)c2)C1` [Example 160, (S)—N-(1-((2-(2-(2,6-dioxopiperidin-3-yl)-1-oxoisoindolin-5-yl)pyridin-4-yl)methyl)azetidin-3-yl)-N-methylbenzamide], with 0.0619 µM.
Then `CN(C1CN(Cc2ccnc(-c3ccc4c(c3)CN([C@H]3CCC(=O)NC3=O)C4=O)c2)C1)S(C)(=O)=O` [Example 161, (S)—N-(1-((2-(2-(2,6-dioxopiperidin-3-yl)-1-oxoisoindolin-5-yl)pyridin-4-yl)methyl)azetidin-3-yl)-N-methylmethanesulfonamide], with 0.223 µM.

(Values after patent US20250346574A1, “PYRIDINYL SUBSTITUTED OXOISOINDOLINE COMPOUNDS FOR THE TREATMENT OF CANCER” (Bristol-Myers Squibb Company, priority 2021, published 2025).)
